The values that follow come from US12582695B2, “Compositions and methods for treating glioma” (Instytut Biologii Doświadczalnej im. Marcelego Nenckiego …, priority 2018, dated 2026).

A short description of this data set: Solubility study. It is filed as physicochemical.
Where [1] appears, read: water, read-out: Solubility Water.

Values after ≈ are worked out from the molar mass of the structure shown. Like-named read-outs stand apart in the source and are kept apart here. Where no end group is shown, it is not given here.

YQKLSYLDFQKQLD [G7K11]: the solubility is, setting by setting: (PBS, read-out: Solubility PBS) 30 µg/mL; under setting [1], 130 µg/mL.
As to YQKLSYLDFQYQKD [G7K13], the solubility was found to be 80 µg/mL (PBS, read-out: Solubility PBS) and 360 µg/mL under setting [1]. Besides, the “solubility in water” value (water) is recorded as “improved water solubility”.
With `CC(C)C[C@H](NC(=O)[C@H](CCC(N)=O)NC(=O)[C@H](Cc1ccc(O)cc1)NC(=O)[C@H](CCC(N)=O)NC(=O)[C@H](Cc1ccccc1)NC(=O)[C@H](CC(=O)O)NC(=O)[C@H](CC(C)C)NC(=O)[C@H](Cc1ccc(O)cc1)NC(=O)[C@H](CO)NC(=O)[C@H](CC(C)C)NC(=O)[C@H](CCCCN)NC(=O)[C@H](CCC(N)=O)NC(=O)[C@@H](N)Cc1ccc(O)cc1)C(=O)N[C@@H](CC(=O)O)C(=O)O` [G7], the solubility (PBS, read-out: Solubility PBS) came to 120 µg/mL (≈ 65.8 µM). In addition, the “solubility in aqueous buffers” value (aqueous buffers such as PBS) was “weakly soluble”. Moreover, where the note is “water”, the “solubility in water” value is “water insoluble”.
Regarding YQKLSYLDFQYQKDK [G7K15], the solubility (PBS, read-out: Solubility PBS) was determined as 80 µg/mL and the solubility under setting [1] was 180 µg/mL.
Take `CC(C)C[C@H](NC(=O)[C@H](CCC(N)=O)NC(=O)[C@H](Cc1ccc(O)cc1)NC(=O)[C@H](CCC(N)=O)NC(=O)[C@H](Cc1ccccc1)NC(=O)[C@H](CC(=O)O)NC(=O)[C@H](CC(C)C)NC(=O)[C@H](Cc1ccc(O)cc1)NC(=O)[C@H](CO)NC(=O)[C@H](CC(C)C)NC(=O)[C@H](CCCCN)NC(=O)[C@H](CCC(N)=O)NC(=O)[C@H](Cc1ccc(O)cc1)NC(=O)[C@@H](N)CCCCN)C(=O)N[C@@H](CC(=O)O)C(=O)O` [G7K-1]: the solubility (PBS, read-out: Solubility PBS) came out at 60 µg/mL (≈ 30.7 µM) and the solubility under setting [1] stood at 380 µg/mL (≈ 195 µM). Where the note is “water”, the “solubility in water” value is reported as “improved water solubility”.
The like results for YKKLSYLDFQYQLD [G7K2] were, in that order, 240 µg/mL, 780 µg/mL and “highest solubility”.
